Measurements: US7267815B2, “Methods and reagents for the enhancement of virus transduction in the bladder epithelium” (priority 2002, dated 2007)
Structures can show the parent of a compound that is named as a salt. Where two headings read alike, the source gives them in different places.

Tests used:
[1] = system: bladder epithelium; experiment: Effect of chemical agent pretreatment on adenovirus-mediated gene transfer and expression (Ad-βgal, X-gal staining); type: in vivo, mouse (BALB/c); details: for effect on transduction (in words): bladder pretreatment followed by Ad-LacZ
Method: 152 female BALB/c mice were used this study.
The route of administration of the chemical agent and virus was intravesical.
3. Based on the reagent being tested, bladder pretreatment was performed as follows:
Poloxomer 407 procedure: Washed 2 times with 100 μl each. Retained the 3rd wash for 5 min and gave one additional wash. Performed 3 times PBS wash prior to virus instillation.
Poloxomer 188 procedure: Washed 2 times with 100 μl each. Retained the 3rd wash for 5 minutes and gave one additional wash. Performed 3 times PBS wash prior to virus instillation.
Lipofectamine 2000 procedure: Added 5 μl of stock Lipofectamine (1 mg/ml) to 195 μl of PBS-10% glycerol. Mixed with an equal volume of Ad-βgal virus and incubated for 15 minutes. Administered 100 μl of the mixture intravesically and retained in the bladder for 30 minutes.
Benzyl Alcohol procedure: Washed 2 times with 100 μl each. Retained the 3rd wash for 15 minutes and then gave one additional wash. Performed 3 times PBS wash prior to virus instillation.
Performed 3 times PBS wash prior to virus instillation.
Polidocanol procedure: Washed 2 times with 100 μl each. Retained the 3rd wash for 5 min and then gave one additional wash. Performed 3 times PBS wash prior to virus instillation.
DC-Cho procedure: Washed 2 times with 100 μl each. Retained the 3rd wash for 5 min and then gave one additional wash. Performed 3 times PBS wash prior to virus instillation.
0.4% HPMC 2910 procedure: No pretreatment. An equal volume of the virus was mixed with 0.8% solution of HPMC2910 and the mixture was instilled into the bladder for 30 minutes.
100 mg/ml Poly-Lysine procedure: No pretreatment. An equal volume of the virus was mixed with 100 mg/ml solution of Poly-Lysine and the mixture was instilled into the bladder for 30 minutes.
0.4% polyvinyl alcohol (PVA) procedure: No pretreatment. An equal volume of the virus was mixed with 0.8% solution of PVA and the mixture was instilled into the bladder for 30 minutes.
n-dodecyl-β-D glucopyranoside procedure: Washed 2 times with 100 μl each. Retained the 3rd wash for 5 min and then gave one additional wash. Performed 3 times PBS wash prior to virus instillation.
0.4% PVP procedure: No pretreatment. An equal volume of the virus was mixed with 0.8% solution of PVP and the mixture was instilled into the bladder for 30 min.
0.1% cholesterol-cyclodextrin reagent procedure: No pretreatment. An equal volume of the virus was mixed with 0.2% solution of Cholesterol-Cyclodextrin and the mixture was instilled into the bladder for 30 minutes.
n-dodecyl-β-D-maltoside procedure: Washed 2 times with 100 μl each. Retained the 3rd wash for 5 min and then gave one additional wash. Performed 3 times PBS wash prior to virus instillation.
Sodium salt of dodecyl benzenesulfonic acid procedure: Washed 2 times with 100 μl each. Retained the 3rd wash for 5 min and then gave one additional wash. Performed 3 times PBS wash prior to virus instillation.
0.1% sodium dodecyl sulphate procedure: Wash 2 times with 100 μl each. Retained the 3rd wash for 5 min and then gave one additional wash. Performed 3 times PBS wash prior to virus instillation.
0.1% Tween 20 procedure: Washed 2 times with 100 μl each. Retained the 3rd wash for 5 min and then gave one additional wash. Performed 3 times PBS wash prior to virus instillation.
0.1% Triton® X-100 procedure: Washed 2 times with 100 μl each. Retained the 3rd wash for 5 min and then gave one additional wash. Perform 3 times PBS wash prior to virus instillation.
0.1% Forlan C-24 procedure: Washed 2 times with 100 μl each. Retained the 3rd wash for 5 min and then gave one additional wash. Performed 3 times PBS wash prior to virus instillation.
0.1% decyl-b-D-maltoside procedure: Washed 2 times with 100 μl each. Retained the 3rd wash for 5 min and then gave one additional wash. Performed 3 times PBS wash prior to virus instillation.
0.1% 6-cyclohexylhexyl-b-D-maltoside procedure: Washed 2 times with 100 μl each. […]

[2] = system: bladder epithelium; experiment: Transduction efficacy of exemplary pretreatment agents (summary Table 7); type: in vivo, mouse; details: pretreatment agent
[3] = system: adenovirus; experiment: Study #4: degradation of adenovirus by SDS (anion exchange chromatography); type: physicochemical; details: 37° C.
Method: A series of experiments were preformed on samples of adenovirus incubated at 37° C. for 15-30 minutes in various concentrations of SDS. The resulting material was examined by anion exchange chromatography.

[4] = system: adenovirus (Ad-LacZ); experiment: Study #5: adenovirus stability after incubation with 0.1% SDS or 0.1% DDM (plaque assay); type: physicochemical; details: 0.1% solution, one hour at 25° C. or 37° C.
Method: In this study, adenovirus (Ad-LacZ) preparations (1.0×10^12 vp/ml) were mixed with solutions of SDS or DDM to obtain a mixture of adenovirus and each of these surfactants. […] These samples were incubated at 25° C. or 37° C. for one hour before freezing. They were sent to assay services for plaque assay analysis.

[5] = system: SD rat bladder epithelium; experiment: Adenovirus dose titration with SDS or DDM pretreatment; type: in vivo, Sprague Dawley Rat; details: 0.1% pretreatment
Source text: All the animals had >90% in Ad-βgal gene expression in mice bladder. Adenovirus Dose Titration with Different Chemical Agents Pretreatment on SD Rat Bladder Epithelium • Species: Female Sprague Dawley Rat (Taconic Laboratory)—2/group • Study Design: To test the virus infectivity of rat bladder epithelium with different doses of Adenovirus following the pretreatment with SDS or DDM. This study also explored relationship between bladder volume and residual of SDS or DDM for adenovirus infectivity. • Dose/Route:
Rat bladders infected with 4×10^10 vp adenovirus achieved >90% Ad-βgal gene expression levels whereas rat bladders infected with 4×10^9 vp adenovirus had Ad-βgal gene expression levels range from 30% to 50%. […] Efficacy of Dodecyl-β-D-Maltoside as a Pretreatment Agent Prior to Adenovirus Infection of Mice Bladder Urothelium • Species: Female Balb/c Mouse (Taconic Laboratory)—2/group • Study Design: To test DDM from two different suppliers as pretreatment agents to enhance the adenovirus infection of mice bladder urothelium in a large group of animals. • Dose/Route: […]

[6] = system: Ad5-LacZ adenovirus; experiment: Study #1: compatibility of Ad5-LacZ with ethanol and urine (plaque assay); type: physicochemical; details: 40% ethanol, 37° C. one hour
Method: In this study, each sample was incubated at 37° C. for one hour before the plaque assay started.

[7] = system: Ad5-LacZ adenovirus; experiment: Study #2: compatibility of Ad5-LacZ with ethanol (plaque assay); type: physicochemical; details: higher concentrations of ethanol (i.e., ≧10%)
Method: For this study, each sample was incubated at 37° C. before the plaque assay started.

[8] = system: bladder epithelium
Method: A study was conducted to evaluate the effect of ethanol pretreatment on adenovirus-mediated gene transfer and expression in the bladder epithelium of rodents.
Ad-βgal virus was made as a frozen formulation using standard conditions known in the art for freezing and formulation of adenovirus. The vehicle for the virus arm was PBS plus 10% glycerol.
80 female BALB/c mice were used for this study. Female animals are chosen because of the ease of urethral cannulation and vesicle instillation. The mice were approximately 10 to 12 weeks on the day of the start of the experiment.
Animals were anesthetized with isoflurane and a 24 g catheter introduced through the urethra into the bladder.
Residual urine was emptied and the bladder was flushed 3 times with 100-150 μl each of PBS.
Ad-βgal viruses diluted in 0.1 ml of PBS-10% glycerol were administered intravesically into the bladder and retained in the bladder for 45 minutes. A knot was placed around the urethral orifice to prevent leakage of the virus and to prevent the catheter from dislodging.
Treatment was stopped by withdrawing the virus and flushing the bladders 3 times with 100-150 μl of PBS. […]
Animals were killed 48 hours after treatment. […] Transgene expression in the luminal epithelium of the longitudinally opened bladders was empirically determined.

[9] = system: adenovirus; experiment: Study #3: compatibility of adenovirus with selected enhancers (plaque assay); type: physicochemical
Method: For this study, each sample was incubated at 37° C. or 25° C. before the plaque assay started.

[10] = system: bladder; experiment: Histopathology of bladders after chemical agent pretreatment (pathologists report); type: in vivo, mouse (BALB/c)
Source text: Bladders fixed in whole organ fixative were sectioned and stained with hematoxylin-eosin for histologic examination.

[11] = 0.2% pre-treatment for 5 minutes
[12] = 0.02% pre-treatment for 5 minutes
[13] = 0.05% pre-treatment for 5 minutes

## OC[C@H]1O[C@H](O[C@H]2[C@H](O)[C@@H](O)[C@H](OCCCCCCC3CCCCC3)O[C@@H]2CO)[C@H](O)[C@@H](O)[C@@H]1O [6-cyclohexylhexyl-β-D-maltoside]
[1]
  response class (level of transduction): strongest response
  effect on transduction (in words): increased transduction significantly
[2]
  Transduction Efficacy: ++++ (“++++” means >75% transduction efficacy)

## CCCCCCCCCCOS(=O)(=O)[O-].[Na+] [Sodium decyl sulfate]
[2]
  Transduction Efficacy: + (“+” means 10-25% transduction efficacy)

## CCCCCCCCCCCCOS(=O)(=O)O [Sodium dodecyl sulfate, sodium dodecyl sulfate]
[3]; SDS above or equal to 0.025%, 15-30 minutes
  degradation of the virus (AEX): will rapidly degrade the virus
[3]; SDS at 0.0125%, 30 minutes of incubation
  particle quality or quantity by AEX method: did not reduce the particle quality or quantity
[1]
  response class (level of transduction): strongest response
[4]
  effect on adenovirus (in words): will inactivate the virus
[5]
  removal of GAG layer of bladder epithelium: effective to remove GAG layer of bladder epithelium
[2]
  Transduction Efficacy: ++++ (“++++” means >75% transduction efficacy)

## CCO [ethanol]
[6]
  effect on the virus (in words): inactivated most of the virus
[7]
  effect on adenovirus (in words): partial to complete inactivation of adenovirus
[8]; 15%, 20%, 25%, and 30 wt. % ethanol pretreatment for 20 minutes, then Ad-βgal 45 min, 48 hours
  transduction: 10-20%
[8]; ethanol percentage as high as 30%, reference pre-treatment
  transduction: 10-20%

## CCCCCCCCCCCCO[C@H]1O[C@H](CO)[C@@H](O[C@H]2O[C@H](CO)[C@@H](O)[C@H](O)[C@H]2O)[C@H](O)[C@H]1O [n-Dodecyl-α-D-Maltoside, n-dodecyl-α-D-maltoside]
[2]
  Transduction Efficacy: ++++ (“++++” means >75% transduction efficacy)

## CCCCCCCCCCCCCCO[C@@H]1O[C@H](CO)[C@@H](O[C@H]2O[C@H](CO)[C@@H](O)[C@H](O)[C@H]2O)[C@H](O)[C@H]1O [n-Tetradecyl-β-D-Maltoside]
[2]
  Transduction Efficacy: ++ (“++” means 25-50% transduction efficacy)

## CCCCCCCCCCCCCOC1OC(CO)C(OC2OC(CO)C(O)C(O)C2O)C(O)C1O [n-Tridecyl-β-D-Maltoside]
[2]
  Transduction Efficacy: +++ (“+++” means 50-75% transduction efficacy)

## CCCCCCCCCCO[C@@H]1O[C@H](CO)[C@@H](O[C@H]2O[C@H](CO)[C@@H](O)[C@H](O)[C@H]2O)[C@H](O)[C@H]1O [n-decyl-β-D-maltoside]
[1]
  response class (level of transduction): weak responders (had significantly less stained area compared to the ethanol control group)
  effect on transduction (in words): only a slight effect on transduction
[2]
  Transduction Efficacy: + (“+” means 10-25% transduction efficacy)

## CCCCCCCCCCCCO[C@@H]1O[C@H](CO)[C@@H](O)[C@H](O)[C@H]1O [n-dodecyl-β-D-glucopyranoside]
[1]
  effect on transduction (in words): little or no enhancement of transduction

## CCCCCCCCCCCCc1ccc(S(=O)(=O)[O-])cc1.[Na+] [sodium salt of dodecyl-benzenesulfonic acid]
[1]
  response class (level of transduction): strongest response
  effect on transduction (in words): enhanced the transduction of Ad-LacZ in murine bladders
[1]; [11]
  transduction of the urothelium: 20-40%
[2]
  Transduction Efficacy: + (“+” means 10-25% transduction efficacy)

## Triton X-100
[1]
  response class (level of transduction): weak responders (had significantly less stained area compared to the ethanol control group)
  effect on transduction (in words): found to enhance transduction
[2]
  Transduction Efficacy: + (“+” means 10-25% transduction efficacy)

## polyethyleneglycoldodecyl ether [polidocanol, reference compound]
[1]
  response class (level of transduction): strongest response
[1]; [12]
  transduction of the urothelium: 10-20%
[1]; [13]
  transduction of the urothelium: 30-40%
[1]; [11]
  transduction of the urothelium: 50-80%
[9]; 25° C., 2 hours
  Average pfu/mL: 1.02E+10 pfu/mL
  Ratio vp/pfu: 21 vp/pfu
[9]; 37° C., 1 hour
  Average pfu/mL: 1.22E+10 pfu/mL
  Ratio vp/pfu: 17 vp/pfu
[9]; under the experimental conditions of Table 5
  compatibility with the adenovirus (in words): compatible with the adenovirus
[10]; [12]
  pathologists report: intact mucosa
[10]; [13]
  pathologists report: minimal submucosal edema
[10]; [11]
  pathologists report: erosions and focal ulcer as well as mucosal compromise
[2]
  Transduction Efficacy: ++ (“++” means 25-50% transduction efficacy)

## sucrose monolaurate
[2]
  Transduction Efficacy: ++++ (“++++” means >75% transduction efficacy)
